From patent publication US3994908A, “Substituted acetic acid derivatives and production thereof” (Shionogi & Co., Ltd., priority 1972, dated 1976)

Legend:
[1] = test system: erythema; experiment: Anti-erythema activity by the Wilhelmi method, oral; assay type: in vivo; conditions: Cavia porcellus, Guinea pig
Text: The anti-erythema activity was observed by the Wilhelmi method
[Wilhelmi,g.,(1949), Schweiz.Med.Wehnschr.,79, 577]. The anti-edema

[2] = in vivo; conditions: mouse, po
Protocol: Arch. int. […] The toxicity was tested by the ora
administration of the tested compound to mice.

Row | SMILES | ED50 [1] | LD50 [2]
1 | CC(C(=O)O)c1ccc(Oc2ccccc2)nc1 (stereo not drawn) [Calcium bis[2-(2-phenoxy-5-pyridyl)-propionate]] | 21 mg/kg | 1640 mg/kg
2 | CC(=O)Oc1ccccc1C(=O)O [Aspirin, reference compound] | 79 mg/kg | 2000 mg/kg
3 | CC(C(=O)O)c1ccnc(Oc2ccccc2)c1 (stereo not drawn) [Calcium bis[2-(2-phenoxy-4-pyridyl)-propionate]] | 47 mg/kg | 2250 mg/kg
4 | CC(C(=O)O)c1ccc(Oc2ccc(Cl)cc2)nc1 (stereo not drawn) [2-(2-p-Chlorophenoxy-5-pyridyl)-propionic acid] | 19 mg/kg | 1150 mg/kg
5 | CCCCC1C(=O)N(c2ccccc2)N(c2ccccc2)C1=O [Phenylbutazone, reference compound] | 26 mg/kg | 
